From the NIST ThermoML archive (doi:10.1021/je8004112)

Assays:
[1] = Ring tensiometer
[2] = xn = mol fraction of the nth substance listed; conditions: Ring tensiometer

C1CCCCC1 [cyclohexane]
[1]
Conditions | surface tension liquid-gas [mN/m]
293.15 K | 25.06
298.15 K | 24.45
303.15 K | 23.87
308.15 K | 23.21
313.15 K | 22.71
318.15 K | 22.05
323.15 K | 21.45

C1CCCCC1 [cyclohexane] + OC1CCCCC1
[2], x1 = 1
Conditions | surface tension liquid-gas [mN/m]
293.15 K | 25.06
298.15 K | 24.45
303.15 K | 23.87
308.15 K | 23.21
313.15 K | 22.71
318.15 K | 22.05
323.15 K | 21.45

OC1CCCCC1 [cyclohexanol]
[1]
Conditions | surface tension liquid-gas [mN/m]
293.15 K | 33.15
298.15 K | 32.74
303.15 K | 32.35
308.15 K | 31.91
313.15 K | 31.58
318.15 K | 31.13
323.15 K | 30.78

OC1CCCCC1 [cyclohexanol] + C1CCCCC1
surface tension liquid-gas [mN/m], [2]
Conditions | x2 = 0 | x2 = 0.005 | x2 = 0.009 | x2 = 0.013 | x2 = 0.023 | x2 = 0.031 | x2 = 0.044 | x2 = 0.07
293.15 K | 33.15 | 31.44 | 30.93 | 30.73 | 30.42 | 30.26 | 30.12 | 29.62
298.15 K | 32.74 | 31 | 30.54 | 30.32 | 29.99 | 29.8 | 29.62 | 29.15
303.15 K | 32.35 | 30.55 | 30.17 | 29.88 | 29.57 | 29.38 | 29.16 | 28.65
308.15 K | 31.91 | 30.12 | 29.77 | 29.49 | 29.15 | 28.93 | 28.65 | 28.18
313.15 K | 31.58 | 29.73 | 29.4 | 29.06 | 28.76 | 28.48 | 28.26 | 27.75
318.15 K | 31.13 | 29.26 | 29 | 28.67 | 28.34 | 28.07 | 27.78 | 27.27
323.15 K | 30.78 | 28.88 | 28.63 | 28.3 | 27.91 | 27.66 | 27.35 | 26.82

OC1CCCCC1 [cyclohexanol] + CCCCCC
surface tension liquid-gas [mN/m], [2]
Conditions | x2 = 0 | x2 = 0.007 | x2 = 0.009 | x2 = 0.012 | x2 = 0.021 | x2 = 0.03 | x2 = 0.042 | x2 = 0.075
293.15 K | 33.15 | 31.87 | 31.64 | 31.5 | 31.11 | 30.5 | 30 | 28.85
298.15 K | 32.74 | 31.5 | 31.31 | 31.08 | 30.71 | 30.07 | 29.59 | 28.42
303.15 K | 32.35 | 31.13 | 30.96 | 30.7 | 30.33 | 29.67 | 29.15 | 27.96
308.15 K | 31.91 | 30.77 | 30.64 | 30.26 | 29.96 | 29.26 | 28.74 | 27.5
313.15 K | 31.58 | 30.42 | 30.31 | 29.88 | 29.55 | 28.85 | 28.33 | 27.06

OC1CCCCC1 [cyclohexanol] + CCCCCCC
surface tension liquid-gas [mN/m], [2]
Conditions | x2 = 0 | x2 = 0.011 | x2 = 0.014 | x2 = 0.02 | x2 = 0.025 | x2 = 0.033 | x2 = 0.037 | x2 = 0.061
293.15 K | 33.15 | 32.84 | 32.69 | 32.56 | 31.8 | 31.53 | 31.38 | 29.87
298.15 K | 32.74 | 32.47 | 32.29 | 32.2 | 31.48 | 31.17 | 31.01 | 29.54
303.15 K | 32.35 | 32.11 | 31.92 | 31.8 | 31.08 | 30.82 | 30.56 | 29.2
308.15 K | 31.91 | 31.78 | 31.55 | 31.39 | 30.74 | 30.44 | 30.14 | 28.83
313.15 K | 31.58 | 31.43 | 31.23 | 31.01 | 30.41 | 30.1 | 29.77 | 28.54
318.15 K | 31.13 | 31.07 | 30.85 | 30.57 | 30.07 | 29.76 | 29.39 | 28.23
323.15 K | 30.78 | 30.7 | 30.45 | 30.16 | 29.7 | 29.43 | 28.99 | 27.87

OC1CCCCC1 [cyclohexanol] + CCCCCCCCC
surface tension liquid-gas [mN/m], [2]
Conditions | x2 = 0 | x2 = 0.003 | x2 = 0.006 | x2 = 0.008 | x2 = 0.012 | x2 = 0.022 | x2 = 0.041 | x2 = 0.06
293.15 K | 33.15 | 32.91 | 32.7 | 32.65 | 32.24 | 31.79 | 30.67 | 29.88
298.15 K | 32.74 | 32.51 | 32.3 | 32.22 | 31.85 | 31.44 | 30.3 | 29.48
303.15 K | 32.35 | 32.11 | 31.84 | 31.78 | 31.49 | 31.09 | 29.91 | 29.11
308.15 K | 31.91 | 31.72 | 31.44 | 31.35 | 31.09 | 30.72 | 29.52 | 28.72
313.15 K | 31.58 | 31.36 | 31.08 | 30.94 | 30.75 | 30.38 | 29.17 | 28.37
318.15 K | 31.13 | 30.99 | 30.69 | 30.52 | 30.41 | 29.99 | 28.8 | 27.98
323.15 K | 30.78 | 30.54 | 30.3 | 30.07 | 30.02 | 29.62 | 28.41 | 27.56

OC1CCCCC1 [cyclohexanol] + CCCCCCCCCCCC
surface tension liquid-gas [mN/m], [2]
Conditions | x2 = 0 | x2 = 0.006 | x2 = 0.009 | x2 = 0.011 | x2 = 0.022 | x2 = 0.031 | x2 = 0.046 | x2 = 0.075
293.15 K | 33.15 | 31.7 | 31.11 | 30.68 | 30.22 | 29.81 | 29.14 | 27.16
298.15 K | 32.74 | 31.23 | 30.71 | 30.32 | 29.85 | 29.37 | 28.74 | 26.8
303.15 K | 32.35 | 30.78 | 30.28 | 29.99 | 29.46 | 28.87 | 28.35 | 26.47
308.15 K | 31.91 | 30.35 | 29.88 | 29.61 | 29.08 | 28.44 | 27.98 | 26.1
313.15 K | 31.58 | 29.92 | 29.49 | 29.25 | 28.72 | 28.01 | 27.58 | 25.76
318.15 K | 31.13 | 29.49 | 29.07 | 28.88 | 28.35 | 27.57 | 27.21 | 25.44
323.15 K | 30.78 | 29 | 28.69 | 28.5 | 27.99 | 27.13 | 26.83 | 25.09

CCCCCCCCCCCC [dodecane]
[1]
Conditions | surface tension liquid-gas [mN/m]
293.15 K | 24.28
298.15 K | 23.84
303.15 K | 23.38
308.15 K | 22.98
313.15 K | 22.56
318.15 K | 22.14
323.15 K | 21.71

CCCCCCCCCCCC [dodecane] + OC1CCCCC1
[2], x1 = 1
Conditions | surface tension liquid-gas [mN/m]
293.15 K | 24.28
298.15 K | 23.84
303.15 K | 23.38
308.15 K | 22.98
313.15 K | 22.56
318.15 K | 22.14
323.15 K | 21.71

CCCCCCC [heptane]
[1]
Conditions | surface tension liquid-gas [mN/m]
293.15 K | 20.05
298.15 K | 19.54
303.15 K | 19.1
308.15 K | 18.58
313.15 K | 18.08
318.15 K | 17.6
323.15 K | 17.06

CCCCCCC [heptane] + OC1CCCCC1
[2], x1 = 1
Conditions | surface tension liquid-gas [mN/m]
293.15 K | 20.05
298.15 K | 19.54
303.15 K | 19.1
308.15 K | 18.58
313.15 K | 18.08
318.15 K | 17.6
323.15 K | 17.06

CCCCCC [hexane]
[1]
Conditions | surface tension liquid-gas [mN/m]
293.15 K | 18.56
298.15 K | 18.03
303.15 K | 17.44
308.15 K | 16.92
313.15 K | 16.38

CCCCCC [hexane] + OC1CCCCC1
[2], x1 = 1
Conditions | surface tension liquid-gas [mN/m]
293.15 K | 18.56
298.15 K | 18.03
303.15 K | 17.44
308.15 K | 16.92
313.15 K | 16.38

CCCCCCCCC [nonane]
[1]
Conditions | surface tension liquid-gas [mN/m]
293.15 K | 23.04
298.15 K | 22.49
303.15 K | 22.04
308.15 K | 21.49
313.15 K | 20.94
318.15 K | 20.47
323.15 K | 19.98

CCCCCCCCC [nonane] + OC1CCCCC1
[2], x1 = 1
Conditions | surface tension liquid-gas [mN/m]
293.15 K | 23.04
298.15 K | 22.49
303.15 K | 22.04
308.15 K | 21.49
313.15 K | 20.94
318.15 K | 20.47
323.15 K | 19.98
